According to US20060106102A1, “Napththalene derivatives which inhibit the cytokine or biological activity of microphage migration inhibitory factor (mif)” (priority 2002, published 2006):
Counter-ions that a name gives are not always drawn. Like-named read-outs stand apart in the source and are kept apart here.

How the values were obtained:
[1] = tested on: antigen-specific T cell activation (splenic T lymphocytes from mBSA-immunised mice); assay: antigen-specific (mBSA) activation of splenic T lymphocytes in vitro, 3H-thymidine incorporation; type: cell-based, C57BL6/J mice
Description: After a further seven (7) days mice were killed and spleens collected aseptically into Hanks buffered saline solution (HBSS). A single cell suspension was prepared in Petri dishes by flushing DMEM through the organ using a 26G needle and 2 mL syringe. The resulting cell suspension was centrifuged for 5-7 minutes and supernatant discarded. Erythrocytes were lysed using a solution containing 0.579% NH4Cl, 0.000037% EDTA, and 0.1% NaHCO3 in a 37° C. water bath. Tubes were then filled with DMEM and centrifuged for 5-7 minutes. […] The specific stimulating antigen, mBSA, was then added at 10-50 μg/mL and plates incubated for 30 hours in a 37° C., 5% CO2 incubator. Tritiated^3H-thymidine was then added at a concentration of 0.5 μCi/well for a further 18 hours. Cells were harvested on a Packard cell harvester, and the harvested material added to 750 μL/tube scintillation fluid. Scintillation counts were read on a Wallac beta-emnission counter. […] Further compounds were also tested for their ability to inhibit antigen-specific T cell activation as a marker of the inhibition of the cytokine or biological activity of MIF using this assay.

[2] = tested on: IL-1-induced COX-2 expression; assay: IL-1-induced COX-2 expression in S112 human dermal fibroblasts (MIF-dependent event), flow cytometry; type: cell-based; details: for inhibition at 1 µM: compound 1 uM
Description: The activity of each compound was studied in a bioassay utilising MIF-dependent activation of human dermal fibroblasts. […] IL-1-induced COX-2 expression is therefore a MIF-dependent event. […] Prior to experimentation, cells were seeded at 10^5 cells/ml in RPMI/0.1% BSA for 18 hours. […] Cells permeabilised with 0.1% saponin were sequentially labelled with a mouse anti-human COX-2 monoclonal antibody and with sheep-anti-mouse F(ab)2 fragment labelled with fluoroscein isothiocyanate. Cellular fluorescence was determined using a flow cytometer. At least 5000 events were counted for each reading, each of which was performed in duplicate, and the results expressed in mean fluorescence intensity (MFI) after subtraction of negative control-labelled cell fluorescence. The effect of each compound was determined by subtracting the IL-1+compound-treated cell MFI from the IL-1-treated cell MFI and expressed as % inhibition. In each case the % inhibition of IL-1-induced COX2 expression is shown as the mean, or mean±SEM where results are available from multiple experiments.

[3] = Mus musculus, T-cell, mBSA 10 μg/ml, read-out: EC50 (T cell activation suppressed by 50% compared to vehicle-only-treated cells)
[4] = Mus musculus, T-cell, mBSA 50 μg/ml, read-out: EC50 (T cell activation suppressed by 50% compared to vehicle-only-treated cells)
[5] = Homo sapiens, Fibroblast, IL-1 0.1 ng/ml, 6 hours, S112 cells, read-out: % inhibition of IL-1-induced COX2 expression (Effect)
[6] = Homo sapiens, Fibroblast, compound 50 uM, IL-1 0.1 ng/ml, 6 hours, S112 cells, read-out: % inhibition of IL-1-induced COX2 expression (Effect)

Row | SMILES | EC50 [1, 3] [µM] | EC50 [1, 4] [µM] | inhibition at 50 µM [2, 6] [%] | also measured
1 | O=C(O)c1ccc2cc(O)ccc2c1 [Compound 9, 6-hydroxy-2-naphthanoic acid] | 72.2 | 87.7 | – | inhibition at 1 µM [2, 5]: 7.5%
2 | CCCCCOS(=O)(=O)c1ccc2cc(O)c(O)cc2c1 [Compound 10, Pentyl 6,7-dihydroxy-2-naphthalenesulfonate] | 10 | 16.7 | 27.7 | –
3 | CNc1ccc2cc(S(=O)(=O)O)ccc2c1 [Compound 11, 6-methylamino-2-naphthalene sulphonic acid, sodium salt] | – | – | – | EC50 ([1]; Mus musculus, T-cell, read-out: EC50 (T cell activation suppressed by 50% compared to vehicle-only-treated cells), mBSA 10 μg/ml): 0.02 µM; EC50 ([1]; Mus musculus, T-cell, read-out: EC50 (T cell activation suppressed by 50% compared to vehicle-only-treated cells), mBSA 50 μg/ml): 3.34 µM; inhibition at 25 µM ([2]; Homo sapiens, Fibroblast, 6 h, read-out: % inhibition of IL-1-induced COX2 expression (Effect)): 13.6%
4 | O=C(O)c1ccc2cc3c(cc2c1)OCCO3 [Compound 14, 2,3-dihydronaphtho[2,3-b][1,4]dioxine-7-carboxylic acid] | 10.2 | 0.12 | 24.1 | –
5 | COC(=O)c1ccc2cc(O)ccc2c1 [Compound 15, Methlyl-6-hydroxy-2-naphthoate] | 51.7 | 21.5 | – | inhibition at 1 µM [2, 5]: 17.3%
6 | CCCCCCCCCCCCCCCCCCCCOC(=O)c1ccc2cc(O)ccc2c1 [Compound 19] | 10.8 | 0.95 | – | inhibition at 10 µM ([2]; Homo sapiens, Fibroblast, compound 10 uM, IL-1 0.1 ng/ml, 6 hours, S112 cells, read-out: % inhibition of IL-1-induced COX2 expression (Effect)): 7.7%
7 | O=C(O)CCCCCOC(=O)c1ccc2cc(O)ccc2c1 [Compound 22] | 3.5 | > 100 | 11.6 | –
8 | CCOC(=O)c1ccc2cc(O)ccc2c1O [Compound 28, Ethyl 1,6-dihydroxy-2-naphthaote] | 6.4 | 1.18 | – | inhibition at 25 µM ([2]; Homo sapiens, Fibroblast, compound 25 uM, IL-1 0.1 ng/ml, 6 hours, S112 cells, read-out: % inhibition of IL-1-induced COX2 expression (Effect)): 7.8%
9 | CCOC(=O)c1ccc2cc(SC(=O)N(C)C)ccc2c1OC [Compound 33, Ethyl-6-[(dimethylamino)carbonyl]sulfanyl-1-methoxy-2-naphthoate] | 12.5 | 0.54 | 5.3 | –
10 | CCCCCNCc1cc2ccc(O)cc2cc1C(=O)O [Compound 43, 6-hydroxy-[2-(1-pentylamino)methyl]-3-naphthoic acid] | – | – | – | EC50 ([1]; mBSA 10 μg/ml, read-out: EC50 (T cell activation suppressed by 50% compared to vehicle-only-treated cells)): 1.85 µM; EC50 ([1]; mBSA 50 μg/ml, read-out: EC50 (T cell activation suppressed by 50% compared to vehicle-only-treated cells)): 41.5 µM; % inhibition of IL-1-induced COX2 expression (Effect) ([2]; compound 50 uM, IL-1 0.1 ng/ml, 6 hours, S112 cells): 24.10%
11 | C[C@@H]1C[C@H]2[C@@H]3CCC4=CC(=O)C=C[C@]4(C)[C@@]3(F)[C@@H](O)C[C@]2(C)[C@@]1(O)C(=O)CO [dexamethasone, reference compound] | – | – | – | % inhibition (IL-1 induced COX-2 expression) ([2]; Table 2 experiment 2: dexamethasone alone, 10^−9 M): 63.8%

The next lines start with results.

Row | EC50 [1, 3] [µM] | EC50 [1, 4] [µM] | SMILES | inhibition at 50 µM [2, 6] [%] | also measured
12 | 8.89 | 0.22 | COC(=O)c1cc2cc(OC)ccc2cc1O [Compound 35, methyl 2-hydroxy-6-methoxy-3-naphthoate] | – | –
13 | 49.3 | 89.8 | COc1ccc2cc(C)c(C(=O)O)cc2c1 [Compound 39, 7-methoxy-3-methyl-2-naphthoic acid: 2-amino-2-methylpropan-1-ol salt] | 13.3 | –
14 | 2.57 | 8.9 | COc1ccc2cc(C)c(C(=O)O)cc2c1Br [Compound 40, 5-bromo-6-methoxy-2-methyl-3-naphthaoic acid] | 8.5 | –
15 | 12.7 | > 100 | COC(=O)c1ccc2ccc(OC)cc2c1 [Compound 44, Methyl 7-methoxy-2-naphthoate ester] | 9.8 | –
16 | 14.8 | 32.4 | COC(=O)c1ccc2ccc(O)cc2c1 [Compound 45, Methyl 7-hydroxy-2-naphanoate ester] | – | –
17 | – | 28.1 | COC(=O)c1ccc2ccc(O)c([N+](=O)[O-])c2c1 [Compound 46, Methyl 7-hydroxy-8-nitro-2-naphthoate ester] | 9.3 | –
18 | 13.1 | > 100 | COC(=O)c1ccc2c([N+](=O)[O-])c(O)ccc2c1 [Compound 47, Methyl 6-hydroxy-5-nitro-2-naphthoate ester] | – | –
19 | 1.01 | 11.9 | COC(=O)c1ccc2c(N)c(OC)ccc2c1 [Compound 49, Methyl 5-amino-6-methoxy-2-naphthoate ester] | – | –
20 | – | 22.3 | COc1ccc2cc(C(CCCCCO)C(=O)O)ccc2c1 (stereo not drawn) [Compound 58, 7-hydroxy-2-(6-methoxy-2-naphthyl)heptanoic acid] | – | –
